# Experiments:
# Assay in all cases: relative viability (nuclei count vs DMSO), 5 days (fraction); higher = more cells survive
# [1] = compound: Cc1nc(NC(=O)N2CCC[C@H]2C(N)=O)sc1-c1ccnc(C(C)(C)C(F)(F)F)c1 [Alpelisib] + CC(C)C[C@H](NC(=O)[C@H](Cc1ccccc1)NC(=O)c1cnccn1)B(O)O [Bortezomib] (partner 0.002 µM)
# Method in brief: (§1)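 Values are medians from duplicate plates. Each reflects relative viability, defined as the nuclei count of treated wells over that of vehicle wells. Lung cancer cell lines in 1536-well plates were pin-tool dosed one day after seeding with one drug alone or with a fixed anchor-drug dose plus five library-drug doses (not always all listed) in √10 steps, then fixed, stained and imaged at 4× after 5 days.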
# [2] = compound: CCCS(=O)(=O)Nc1ccc(F)c(C(=O)c2c[nH]c3ncc(-c4ccc(Cl)cc4)cc23)c1F [Vemurafenib] + O=C(c1cc(Cc2n[nH]c(=O)c3ccccc23)ccc1F)N1CCN(C(=O)C2CC2)CC1 [Olaparib] (partner 8 µM)
# Method in brief: as §1
# [3] = compound: CCCS(=O)(=O)Nc1ccc(F)c(C(=O)c2c[nH]c3ncc(-c4ccc(Cl)cc4)cc23)c1F [Vemurafenib] + C[C@@H](Oc1cc(-c2cnn(C3CCNCC3)c2)cnc1N)c1c(Cl)ccc(F)c1Cl [Crizotinib] (partner 1 µM)
# Method in brief: as §1
# [4] = compound: Cc1nc(NC(=O)N2CCC[C@H]2C(N)=O)sc1-c1ccnc(C(C)(C)C(F)(F)F)c1 [Alpelisib] + N=C(N)NC(=N)NCCc1ccccc1 [Phenformin] (partner 250 µM)
# Method in brief: as §1
Cell Line,relative viability ([1]; first compound 0.04 µM),relative viability ([1]; first compound 0.1265 µM),relative viability ([1]; first compound 0.4 µM),relative viability ([1]; first compound 1.265 µM),relative viability ([1]; first compound 4 µM),relative viability ([2]; first compound 0.03162 µM),relative viability ([2]; first compound 0.1 µM),relative viability ([2]; first compound 0.3162 µM),relative viability ([2]; first compound 1 µM),relative viability ([3]; first compound 0.03162 µM),relative viability ([3]; first compound 0.1 µM),relative viability ([3]; first compound 0.3162 µM),relative viability ([3]; first compound 1 µM),relative viability ([4]; first compound 0.04 µM),relative viability ([4]; first compound 0.1265 µM),relative viability ([4]; first compound 0.4 µM),relative viability ([4]; first compound 1.265 µM),relative viability ([4]; first compound 4 µM)
EBC-1,0.574,0.559,0.584,0.428,0.423,0.451,0.657,0.723,0.649,0.188,0.19,0.197,0.182,–,–,–,–,–
EKVX,1.09,1.05,1.05,0.953,1.02,0.891,–,0.898,0.911,0.842,–,1,0.968,0.234,0.229,0.253,0.225,0.192
EMC-BAC-2,1.02,1.01,1.22,0.929,0.741,0.444,0.528,0.352,0.369,0.703,0.729,0.678,0.681,0.539,0.482,0.498,0.44,0.34
EPLC-272H,0.902,0.911,1.13,0.904,0.622,0.717,0.742,0.834,0.867,0.822,0.809,0.89,0.841,0.303,0.267,0.351,0.279,0.244
H3255,0.852,0.648,1.2,0.48,0.444,0.497,–,0.519,0.556,0.883,–,0.865,0.808,0.352,0.375,0.336,0.25,0.335
HARA,0.976,1.09,1.34,1.01,0.766,0.761,0.289,0.899,0.942,1.04,–,1.09,1.07,0.48,0.451,0.555,0.331,0.301
HCC-15,1.03,0.948,1.04,0.898,0.858,0.699,0.669,0.606,0.522,0.75,0.803,0.699,0.81,0.5,0.434,0.45,0.372,0.274
HCC-44,0.882,0.873,0.937,0.788,0.683,0.985,0.992,0.992,0.99,0.749,0.867,0.809,0.813,0.248,0.174,0.187,0.141,0.161
HCC-78,0.427,0.474,0.686,0.337,0.366,0.73,0.784,1.13,0.881,0.315,0.277,0.376,0.333,0.708,0.54,0.708,0.471,0.428

# Source: the supplement of paper PMC10307832
